Format in all cases: physicochemical
Series [1] in a line: Molar extinction coefficient of i-line (365 nm), UV-visible absorbance in acetonitrile. The conditions noted are these: 0.25 mmol/L in acetonitrile, cell length 1 cm. As to the method: The synthesized photoacid generator was diluted to 0.25 mmol/L with acetonitrile, and using an ultraviolet-visible spectrophotometer (UV-2550 available from SHIMADZU CORPORATION), the absorbance in a range of 200 nm to 500 nm was measured with a cell having an optical path length (a cell length) of 1 cm. The molar extinction coefficient of i-line (365 nm) (ε365) was calculated from the following equation.
[In the equation, […] represents the absorbance at 365 nm.]

Series [2] is described as follows: Thermal decomposition temperature (TG/DTA, 2% weight reduction). The note with it: point of 2% weight reduction; 10° C./minute from 30° C. to 500° C.; nitrogen atmosphere. As to the method:
The synthesized photoacid generator was measured for the change in weight under a temperature increasing condition of 10° C./minute from 30° C. to 500° C. under a nitrogen atmosphere using a thermal gravimetric/differential thermal analyzer (TG/DTA 6200, available from Seiko Instruments Inc.), and a point where the weight was reduced by 2% was defined as the thermal decomposition temperature.

The nature of series [3]: Solvent solubility (butyl acetate, toluene or PGMEA). The conditions noted are these: for Solvent solubility PGMEA / Solvent solubility Butyl acetate / Solvent solubility Toluene: 25° C.; for solubility to a solvent (in words): summary of Tables 4 to 6. As to the method: In a test tube, 0.1 g of the synthesized photoacid generator was placed, and an organic solvent (butyl acetate, toluene or PGMEA) was added thereto in 0.2 g portions under a condition where the temperature was adjusted to 25° C. until the photoacid generator was completely dissolved. In this connection, in the case where the photoacid generator was not completely dissolved even when 20 g of the solvent was added, the photoacid generator was evaluated as one that was not dissolved.

`O=C1c2cccc3cccc(c23)C(=O)N1OS(=O)(=O)C(F)(F)F` [A′-1, 1,8-naphthalimide trifluoromethanesulfonate, reference compound] showed a Molar extinction coefficient in series [1] of 330 L/mol/cm. Moreover, in series [2], the Thermal decomposition temperature turned out to be 225 °C. For the same compound, in series [3], the “Solvent solubility PGMEA” value came out at 2.4 wt %, the “Solvent solubility Butyl acetate” value turned out to be 2 wt %, the “solubility to a solvent (in words)” value was “insufficient” and the “Solvent solubility Toluene” value is listed as 4 wt %.
For `c1ccc(Sc2ccc([S+](c3ccccc3)c3ccccc3)cc2)cc1` [A′-2, reference compound], the Molar extinction coefficient in series [1] is 80 L/mol/cm. Besides, the Thermal decomposition temperature in series [2] worked out at 340 °C. Further, in series [3], the “Solvent solubility PGMEA” value is listed as above 30 wt %, the “Solvent solubility Butyl acetate” value is on record as below 0.5 wt % and the “Solvent solubility Toluene” value was below 0.5 wt %.
`O=C1c2cccc3cccc(c23)C(=O)N1OS(=O)(=O)c1c(F)c(F)c(F)c(F)c1F` [A′-3, 1,8-naphthalimide pentafluorobenzenesulfonate, reference compound] registered a Molar extinction coefficient in series [1] of 330 L/mol/cm. Besides, the Thermal decomposition temperature in series [2] was determined as 228 °C. For the same compound, in series [3], the “Solvent solubility PGMEA” value was determined as 1.9 wt %, the “Solvent solubility Butyl acetate” value was found to be 1.6 wt %, the “solubility to a solvent (in words)” value is recorded as “insufficient” and the “Solvent solubility Toluene” value is on record as 3.2 wt %.
In series [1], `CC1(C)C2CCC1(CS(=O)(=O)ON1C(=O)c3cccc4cccc(c34)C1=O)C(=O)C2` (stereo not drawn) [A′-5, 1,8-naphthalimide-(+)-10-camphorsulfonate, reference compound] displayed a Molar extinction coefficient of 330 L/mol/cm. In series [2], the Thermal decomposition temperature is 230 °C. Besides, in series [3], the “Solvent solubility PGMEA” value is listed as below 0.5 wt %, the “Solvent solubility Butyl acetate” value is below 0.5 wt %, the “solubility to a solvent (in words)” value is reported as “insufficient” and the “Solvent solubility Toluene” value is below 0.6 wt %.
In series [1], `CC(C)Oc1ccc2c3c(cccc13)C(=O)N(OS(=O)(=O)C(F)(F)F)C2=O` [Example A-1, 4-isopropoxy-1,8-naphthalimide trifluoromethanesulfonate] registered a Molar extinction coefficient of 16300 L/mol/cm. This compound also had a Thermal decomposition temperature in series [2] of 234 °C. Moreover, in series [3], the “Solvent solubility PGMEA” value was 6.5 wt %, the “Solvent solubility Butyl acetate” value was 8.5 wt % and the “Solvent solubility Toluene” value was 9 wt %.
For the compound `CCCOc1ccc2c3c(cccc13)C(=O)N(OS(=O)(=O)C(F)(F)F)C2=O` [Example A-2, 4-n-propoxy-1,8-naphthalimide trifluoromethanesulfonate], the Molar extinction coefficient in series [1] turned out to be 14000 L/mol/cm. Further, in series [2], the Thermal decomposition temperature was determined as 238 °C. Further, in series [3], the “Solvent solubility PGMEA” value is 4 wt %, the “Solvent solubility Butyl acetate” value is 4.5 wt % and the “Solvent solubility Toluene” value worked out at 7.5 wt %.
In the case of `O=C1c2cccc3c(OCC(F)(F)C(F)F)ccc(c23)C(=O)N1OS(=O)(=O)C(F)(F)F` [Example A-3, 4-(2,2,3,3-tetrafluoro-1-propoxy)-1,8-naphthalimide trifluoromethanesulfonate], in series [1], the Molar extinction coefficient stood at 12000 L/mol/cm. The compound further registered a Thermal decomposition temperature in series [2] of 230 °C. Besides, in series [3], the “Solvent solubility PGMEA” value is listed as 7.5 wt %, the “Solvent solubility Butyl acetate” value was 6 wt % and the “Solvent solubility Toluene” value is given as 12 wt %.
On to `O=C(Cc1ccccc1)c1ccc2c3c(cccc13)C(=O)N(OS(=O)(=O)C(F)(F)F)C2=O` [Example A-4, 4-phenylacetyl-1,8-naphthalimide trifluoromethanesulfonate], for which, in series [1], the Molar extinction coefficient is 3000 L/mol/cm. Further, the Thermal decomposition temperature in series [2] came to 240 °C. For the same compound, in series [3], the “Solvent solubility PGMEA” value came out at 4 wt %, the “Solvent solubility Butyl acetate” value worked out at 4.5 wt % and the “Solvent solubility Toluene” value was 7 wt %.
As to `O=C1c2cccc3c(Oc4c(F)c(F)c(F)c(F)c4F)ccc(c23)C(=O)N1OS(=O)(=O)C(F)(F)F` [Example A-5, 4-pentafluorophenoxy-1,8-naphthalimide trifluoromethanesulfonate], the Molar extinction coefficient in series [1] was found to be 12000 L/mol/cm. The same compound displayed a Thermal decomposition temperature in series [2] of 245 °C. Also, in series [3], the “Solvent solubility PGMEA” value came out at 14 wt %, the “Solvent solubility Butyl acetate” value is listed as 17 wt % and the “Solvent solubility Toluene” value stood at 16 wt %.
In turn, `O=C1c2cccc3c(Oc4cccc(C(F)(F)F)c4)ccc(c23)C(=O)N1OS(=O)(=O)C(F)(F)F` [Example A-6, 4-(3-trifluoromethylphenoxy)-1,8-naphthalimide trifluoromethanesulfonate] yielded a Molar extinction coefficient in series [1] of 16000 L/mol/cm. The same compound came in with a Thermal decomposition temperature in series [2] of 239 °C. In series [3], the “Solvent solubility PGMEA” value stood at 11 wt %, the “Solvent solubility Butyl acetate” value was determined as 14 wt % and the “Solvent solubility Toluene” value is 13 wt %.
In the same order, the values of `O=C1c2cccc3c(Sc4ccccc4)ccc(c23)C(=O)N1OS(=O)(=O)C(F)(F)F` [Example A-7, 4-phenylthio-1,8-naphthalimide trifluoromethanesulfonate] are 20000 L/mol/cm, 240 °C, 5 wt %, 7 wt % and 7 wt %.
As to `COc1cc2c3c(cccc3c1)C(=O)N(OS(=O)(=O)C(F)(F)F)C2=O` [Example A-8, 3-methoxy-1,8-naphthalimide trifluoromethanesulfonate], the Molar extinction coefficient in series [1] was determined as 7500 L/mol/cm. The Thermal decomposition temperature in series [2] is 243 °C. In addition, in series [3], the “Solvent solubility PGMEA” value was found to be 6 wt %, the “Solvent solubility Butyl acetate” value came to 8 wt % and the “Solvent solubility Toluene” value turned out to be 7.5 wt %.
`CCCCC(CC)C(=O)Oc1cc2c3c(cccc3c1)C(=O)N(OS(=O)(=O)C(F)(F)F)C2=O` (stereo not drawn) [Example A-9, 3-(2-ethylhexanoyloxy)-1,8-naphthalimide trifluoromethanesulfonate] displayed a Molar extinction coefficient in series [1] of 1500 L/mol/cm. In series [2], this compound showed a Thermal decomposition temperature of 231 °C. In series [3], the “Solvent solubility PGMEA” value was above 30 wt %, the “Solvent solubility Butyl acetate” value is given as above 30 wt % and the “Solvent solubility Toluene” value is on record as above 30 wt %.
`CCCC(=O)Oc1cc2c3c(cccc3c1)C(=O)N(OS(=O)(=O)C(F)(F)F)C2=O` [Example A-10, 3-butyroyloxy-1,8-naphthalimide trifluoromethanesulfonate] had a Molar extinction coefficient in series [1] of 1600 L/mol/cm. In addition, the Thermal decomposition temperature in series [2] worked out at 234 °C. Moreover, in series [3], the “Solvent solubility PGMEA” value is above 30 wt %, the “Solvent solubility Butyl acetate” value is given as above 30 wt % and the “Solvent solubility Toluene” value is reported as above 30 wt %.
For the compound `O=C(Oc1cc2c3c(cccc3c1)C(=O)N(OS(=O)(=O)C(F)(F)F)C2=O)c1ccccc1` [Example A-11, 3-benzoyloxy-1,8-naphthalimide trifluoromethanesulfonate], the Molar extinction coefficient in series [1] is 1400 L/mol/cm. The compound further displayed a Thermal decomposition temperature in series [2] of 241 °C. For the same compound, in series [3], the “Solvent solubility PGMEA” value came out at 20 wt %, the “Solvent solubility Butyl acetate” value worked out at 25 wt % and the “Solvent solubility Toluene” value is listed as 23 wt %.
Take `O=C(Oc1cc2c3c(cccc3c1)C(=O)N(OS(=O)(=O)C(F)(F)F)C2=O)c1c(F)c(F)c(F)c(F)c1F` [Example A-12, 3-pentafluorobenzoyloxy-1,8-naphthalimide trifluoromethanesulfonate]: the Molar extinction coefficient in series [1] came to 1300 L/mol/cm. In addition, the Thermal decomposition temperature in series [2] was found to be 242 °C. Moreover, in series [3], the “Solvent solubility PGMEA” value is given as above 30 wt %, the “Solvent solubility Butyl acetate” value is given as above 30 wt % and the “Solvent solubility Toluene” value is on record as above 30 wt %.
In series [1], `CC(C)(C)c1cc2c3c(cc(C(C)(C)C)cc3c1)C(=O)N(OS(=O)(=O)C(F)(F)F)C2=O` [Example A-13, 3,6-di-tert-butyl-1,8-naphthalimide trifluoromethanesulfonate] showed a Molar extinction coefficient of 6500 L/mol/cm. The compound also came in with a Thermal decomposition temperature in series [2] of 245 °C. Also, in series [3], the “Solvent solubility PGMEA” value amounted to 8 wt %, the “Solvent solubility Butyl acetate” value is reported as 8 wt % and the “Solvent solubility Toluene” value came to 7.5 wt %.
Compound `CC(C)(C)Cc1cc2c3c(cc(CC(C)(C)C)cc3c1)C(=O)N(OS(=O)(=O)C(F)(F)F)C2=O` [Example A-14, 3,6-dineopentyl-1,8-naphthalimide trifluoromethanesulfonate] gave a Molar extinction coefficient in series [1] of 6200 L/mol/cm. For the same compound, the Thermal decomposition temperature in series [2] is 248 °C. In series [3], the “Solvent solubility PGMEA” value was found to be 14 wt %, the “Solvent solubility Butyl acetate” value came out at 18 wt % and the “Solvent solubility Toluene” value was found to be 10 wt %.

The values are drawn from patent US20160368879A1, “PHOTOACID GENERATOR, AND RESIN COMPOSITION FOR PHOTOLITHOGRAPHY” (SAN-APRO LTD., priority 2013, published 2016).
